pEC50, pKi: −log10 of the molar value.
What was measured:
receptor EGFP-NK2R [1] = biological target: T1, receptor EGFP-NK2R (Homo sapiens, UniProt P21452); assay: cAMP production caused by NKA in HEK 293 cells expressing EGFP-NK2R; assay type: cell-based
T1 sequence (P21452 1-398): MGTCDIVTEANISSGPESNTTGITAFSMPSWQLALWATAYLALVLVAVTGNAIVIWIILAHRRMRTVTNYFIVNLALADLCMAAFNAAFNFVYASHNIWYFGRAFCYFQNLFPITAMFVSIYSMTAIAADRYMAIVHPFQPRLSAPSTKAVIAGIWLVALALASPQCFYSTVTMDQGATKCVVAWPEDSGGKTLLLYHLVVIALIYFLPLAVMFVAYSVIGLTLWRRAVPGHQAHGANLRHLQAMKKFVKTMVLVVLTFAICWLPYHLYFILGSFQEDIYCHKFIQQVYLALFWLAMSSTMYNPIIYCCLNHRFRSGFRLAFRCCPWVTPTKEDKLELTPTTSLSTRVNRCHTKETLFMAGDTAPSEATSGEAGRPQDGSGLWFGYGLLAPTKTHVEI
Method: (§1) 30 mm 6-well cell-culture dishes are treated with collagen then seeded with 50,000 cells expressing the receptor EGFP-NK2R. […] The quantity of cAMP produced (expressed in pmoles/well) is determined according to a radioimmunological process described in Gicquiaux et al. (2002).

receptor EGFP-NK2R [2] = biological target: T1, receptor EGFP-NK2R; assay: Calcium response caused by NKA/NKA-Bo in HEK 293 cells expressing EGFP-NK2R (indo-1); assay type: cell-based; settings: for time necessary to return to 50% of the maximum calcium response: 5 nM NKA, 91 seconds in the absence of 805
Method: The calcium responses caused by the agonist NKA-Bo on cells expressing the receptor EGFP-NK2R are recorded after charging the cells with the calcium-sensitive fluorescent probe: indo-1, according to the protocol described in Vollmer et al. (1999). The cells are put into suspension at a rate of 500,000 cells/ml in Hepes buffer and arranged in a spectrofluorimeter cuvette. The excitation wavelength is fixed at 338 nm and the emission is recorded at 400 and 470 nm. The responses traced are the ratios of the signals 400/470.

[3] = biological target: T2, wild-type human receptor NK2 (Homo sapiens, UniProt P21452); assay: Calcium response caused by neurokinin A in HEK 293 cells expressing NK2 receptor; assay type: cell-based; settings: 805 20 μM; neurokinin A 10 or 100 nM
T2 construct: expressed in transfected cells; host or cells: HEK 293
T2 sequence (P21452 1-398): T1 sequence (P21452 1-398)
Method: The cells are put into suspension at a rate of 1,000,000 cells/ml in Hepes buffer (op. cit.) and arranged in a spectrofluorimeter cuvette. The excitation wavelength is fixed at 338 nm and the emission is recorded at 400 nm. The responses traced are the signals recorded at 400 nm.

receptor EGFP-NK2R [4] = biological target: T3, receptor EGFP-NK2R (UniProt P16610); assay: cAMP production caused by NKA in HEK 293 cells expressing EGFP-NK2R; assay type: cell-based; parameters: 805 at 10 or 50 μM; NKA alone; fused on or other part: EGFP fused to the receptor; settings: read-out: inhibition constant KI of the maximum response of cAMP induced by the NKA; FIG. 9C
T3 sequence (P16610 1-390): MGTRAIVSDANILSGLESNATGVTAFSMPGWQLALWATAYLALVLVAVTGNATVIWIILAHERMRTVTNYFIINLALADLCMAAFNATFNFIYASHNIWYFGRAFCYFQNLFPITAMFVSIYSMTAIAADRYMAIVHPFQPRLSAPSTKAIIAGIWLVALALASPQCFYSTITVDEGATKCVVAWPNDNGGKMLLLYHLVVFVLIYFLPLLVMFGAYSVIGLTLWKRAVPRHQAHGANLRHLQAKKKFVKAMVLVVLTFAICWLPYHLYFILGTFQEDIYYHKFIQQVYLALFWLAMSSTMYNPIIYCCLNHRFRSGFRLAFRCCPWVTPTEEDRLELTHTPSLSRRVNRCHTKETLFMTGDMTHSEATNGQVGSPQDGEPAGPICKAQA
Method: as §1

receptor EGFP-NK2R [5] = biological target: T3, receptor EGFP-NK2R; assay: Reversion of the binding of NKA-Bo to EGFP-NK2R by fluorescence energy transfer; parameters: % al (max): maximum value observed for the increase in amplitude of the rapid dissociation rate; ns = n; other: 20 nM of NK; % al (at 10 μM); other: compou; fused on or other part: EGFP fused to the receptor as FRET donor
Text: The amplitude of each relaxation is then given by the adjustment of the experimental traces.

receptor EGFP-NK2R [6] = biological target: T3, receptor EGFP-NK2R; assay: Dissociation of NKA4-10 TR7 from EGFP-NK2R by fluorescence energy transfer; assay type: binding; parameters: % al (max): maximum value observed for the increase in amplitude of the rapid dissociation rate; ns = n; other: 20 nM of NK; % al (at 10 μM); other: compou; fused on or other part: EGFP fused to the receptor as FRET donor
Method: The x-axis represents time in seconds and the y-axis represents fluorescence.
In the presence of 10 μM of 805, an acceleration of the dissociation is observed characterized by a modification of the amplitudes of the rapid (88%) and slow (12%) dissociation stages.

N#CCN(Cc1ccccc1)Cc1ccc2ccccc2c1 [compound 805, [benzyl(2-naphthylmethyl)amino]acetonitrile]
Rmax, maximum cAMP response to NKA relative to control (receptor EGFP-NK2R [1]; [805]=10 μM): 0.7 | Rmax, maximum cAMP response to NKA relative to control (receptor EGFP-NK2R [1]; [805]=50 μM): 0.3 | time necessary to return to 50% of the maximum calcium response (receptor EGFP-NK2R [2]; 805 10 μM): 105 s | effect on the calcium response caused by NKA (receptor EGFP-NK2R [2]; 805 50 μM with 1, 5 and 1000 nM NKA): increases the duration of the calcium response | time necessary to return to 50% of the maximum calcium response (receptor EGFP-NK2R [2]; 805 50 μM): 115 s | effect on the calcium response caused by neurokinin A [3]: increases the amplitude of the response | pKi (receptor EGFP-NK2R [4]): ~5.22 | % bond reversion (at 10 μM) (receptor EGFP-NK2R [5]; compound 10 μM): 1 (10 μM) % | IC50 (receptor EGFP-NK2R [5]; read-out: IC50 (μM): concentration of compound for which a 50% reduction is observed in the binding of NKA-Bo, 20 nM of NKA-Bo, EGFP-NK2R receptor): > 500 µM | amplitude of the slow dissociation of NKA4-10 TR7 (receptor EGFP-NK2R [6]; 10 μM of 805, 10° C., 42% without 805): 12% | amplitude of the rapid dissociation of NKA4-10 TR7 (receptor EGFP-NK2R [6]; 805 at 100 μM, approximately 40% in the absence of 805): up to 90% | pEC50 (receptor EGFP-NK2R [6]; read-out: concentration which causes a 50% increase in the amplitude of the rapid dissociation of NKA4-10 TR7 (apparent affinity), 10° C.): ~4.70
